Laboratory results taken from patent US5621010A, “Urea derivatives and their use as ACAT inhibitors” (Nisshin Flour Milling Co., Ltd., priority 1993, dated 1997).

Key:
[1] = tested on: ACAT (liver microsome fractions of male rabbits); assay: ACAT inhibitory activity: formation of labelled cholesteryl esters from [1-14C]oleoyl-CoA and endogenous cholesterol; assay type: biochemical, rabbit; conditions: compound added at 10^-7 M
Experimental: The enzyme preparation, ACAT was prepared from liver microsme fractions of male rabbits according to the method of E. E. Largis et al. (Journal of Lipid Research, Vol. 30, pages 681-690, 1989). The activity was calculated by assaying the amount of the labelled cholesteryl esters formed from [1-^14 C]oleoyl-CoA and endogenous cholesterol according to the method of Kazuichi NATORI et al. (Japan J. Pharmacol., Vol. 42, pages 517-523, 1986).
The result is shown in Table 1, in which percent inhibition of the formation of the labelled cholesteryl esters with a compound added at 10^-7 M is indicated as index for the ACAT inhibitory activity.

Human LDL = assay: Antioxidative activity: inhibition of MDA formation from LDL incubated with cupric sulfate; assay type: biochemical; conditions: compound 10^-5 M; cupric sulfate 5×10^-6 M; 5 hrs; compared with control
Experimental: Human LDL was incubated in the presence of cupric sulfate (5×10^-6 M) and in the presence or absence of a compound (10^-5 M) for 5 hrs. After the incubation, the peroxidation of low-density lipoproteins (LDL) is evaluated by the formation of malondialdehyde (MDA), which is a sort of lipid peroxides according to the method of Simon J. T. Mao et al. (J. Med. Chem., Vol. 34, pages 298-302, 1991). Activity of the compound is shown by percent inhibition of the MDA formation as compared with control.

[2] = Cholesterol-lowering activity in hypercholesteremic rats; assay type: in vivo, Sprague-Dawley male rats; conditions: 30 mg/kg oral, in 0.5% methylcellulose; plasma cholesterol prior to and 5 hrs after administration
Experimental: Sprague-Dawley male rats were given a powdery feed containing 1% cholesterol and 0.5% cholic acid in an amount of 15 g per day per animal for 3 days to produce hypercholesteremic rats. Four days later, a compound suspended in 0.5% methylcellulose was administered orally at a dose of 30 mg/kg. Blood was drawn prior to and 5 hrs after the administration of the compound, for which the plasma cholesterol level was measured using a commercially available assay kit (Cholesterol E Test Wako, Wako Junyaku K.K.).

| SMILES | ACAT Inhibition [1] | Antioxidant Activity (percent inhibition of the MDA formation) (Human LDL) | Percent Reduction of Cholesterol [2] |
| --- | --- | --- | --- |
| CC(C)(C)c1cc(CCc2ccccc2NC(=O)NC2CCN(Cc3ccccc3)CC2)cc(C(C)(C)C)c1O [Example 35, N-[2-(3,5-di-tert-butyl-4-hydroxyphenethyl)phenyl]-N'-(1-benzyl-4-piperidyl)urea] | 82% | 94% | 48.4% |
| CC(C)(C)c1cc(CCc2ccccc2NC(=O)NC2CCN(Cc3ccc(F)cc3)CC2)cc(C(C)(C)C)c1O [Example 83, N-[2-(3,5-di-tert-butyl-4-hydroxyphenethyl)phenyl]-N'-[1-(4-fluorobenzyl)-4-piperidyl]urea] | 96% | 96% | 44.6% |
| CC(C)(C)c1cc(CCc2ccccc2NC(=O)N2CCCC3CCCCC32)cc(C(C)(C)C)c1O (stereo not drawn) [Example 130, 1-[N-[2-(3,5-di-tert-butyl-4-hydroxyphenethyl)phenyl]carbamoyl]decahydroquinoline] | 99% | 95% | 71.5% |
